Series [1] concerns L. (V.) panamensis promastigotes. The series can be described thus: Antileishmanial activity in L. (V.) panamensis promastigotes (resazurin, 72 h). Type of series: cell-based, Leishmania (Viannia) panamensis. Conditions: L. (V.) panamensis promastigotes, ± SD; for EC50: read-out: EC50 Intracellular promastigotes (converted). The method, then: They were treated with quinoline alkaloid–like compounds at a concentration of 100, 10, 1, 0.1, and 0.01 μg/mL for 72 h at 26°C. Next, we determined antileishmanial activity using the resazurin method (Sigma-Aldrich). Promastigotes treated with amphotericin B (Sigma-Aldrich) and pentamidine (Sanofi-Aventis, Gentilly, France) were used as parasite death (positive) controls. Results were expressed as the medial effective concentration (EC50) using Prism GraphPad software for nonlinear regression analysis (https://www.graphpad.com/scientific-software/prism/).
(§1) All assays required at least three independently duplicated experiments. We determined cytotoxicity against hMDMs and effectivity in L. (V) panamensis promastigotes according to each treatment’s mortality (compound and concentration) using Eq 1, where the control mean fluorescence intensity (MFI) was 100% viability: Validityinhibition(%)=100−[MIFexposedcells/MIFunexposedcells×100] (1)
(§2) We used GraphPad Prism nonlinear regression analysis to estimate the percentage mortality with regard to CC50 and EC50. […] The antileishmanial activity with regard to promastigotes was classified as active according to Eq 2: Active=EC50<[LC50/2], (2) where LC50 is the median lethal concentration. We also used GraphPad Prism nonlinear regression analysis to determine the intracellular antileishmanial activity (concentration vs. response), depending on the infection (number of infected cells) and parasite burden (number of parasites/cell) obtained in experimental conditions. Parasite inhibition was estimated using Eq 3, where the plate MFI is 100% parasites: Infectioninhibition(%)=100−[(MIFexposedparasites/MIFunexposedparasites×100)] (3)

For series [2], the system named is L. (V.) panamensis intracellular amastigotes. The series can be described thus: Antileishmanial activity in L. (V.) panamensis intracellular amastigotes in hMDMs. In kind it is cell-based, Leishmania (Viannia) panamensis. The following applies: for SI (selectivity index = CC50/EC50): CC50 hMDMs / EC50 intracellular amastigotes. The method, then:
Next, 100 μL of the suspension was cultured in 96-well plates and infected with L. (V.) panamensis promastigotes (HMOM/COL/87/UA-140) at a 10:1 parasite:cell ratio. We incubated the plates in a 5% CO2 atmosphere for 4 h at 35°C. After incubation, we removed noninternalized parasites by washing the cells with 0.9% NaCl saline solution (Baxter International, Deerfield, IL, USA). The cells were incubated again for 24 h and then treated with each quinoline alkaloid–like compound at a concentration of 100, 10, 1, 0.1, and 0.01 μg/mL in a 5% CO2 atmosphere for 72 h at 36°C. Next, we quantified the percentage of infected cells using fluorescence microscopy, as previously described by Pérez-Cordero in 2011 [23], and quantified the parasite load (amount of intracellular promastigotes and amastigotes per cell) using Giemsa staining and flow cytometry (Cytomics FC 500 MPL; Beckman Coulter, Brea, CA, USA). […] Results were expressed as EC50 using Prism GraphPad software’s probit nonlinear regression analysis (https://www.graphpad.com/scientific-software/prism/).
as §2
The percentage inhibition was used to calculate EC50 by nonlinear regression analysis (fluorescence microscopy), while the parasite burden was evaluated as the percentage of intracellular promastigotes and amastigotes in 100 infected cells (Giemsa staining). […] The selectivity index (SI) was estimated using the following formula: SI=CC50/EC50

The next series deals with hMDMs. The series can be described thus: Apoptosis in noninfected and L. (V.) panamensis-infected hMDMs (annexin V/7AAD flow cytometry). Type of series: cell-based, human. Conditions: compound at EC50, 72 h. The method, then: Next, the cells were fixed with 4% paraformaldehyde for evaluating dead cells using a live/dead cell viability kit (Beckton, Dickinson and Company, Franklin Lakes, NJ, USA). hMDMs cultured without any treatment were used as viability controls, while those treated with 0.01% H2O2, 10 μg/mL of lipopolysaccharide (LPS; Sigma-Aldrich), and 1% dimethyl sulfoxide (DMSO) were used as cell mortality (positive) controls. Apoptotic and necrotic cells were quantified using flow cytometry (FACS Canto II; Becton, Dickinson and Company).

The test system of series [3] is L. (V.) panamensis-infected hMDMs. The series can be described thus: ROS generation in L. (V.) panamensis-infected hMDMs (H2DCFDA flow cytometry). In kind it is cell-based, human. The following applies: compound at EC50, 4, 24, 48 and 72 h. The method, then:
(§3) Next, we detached the cells with ethylenediaminetetraacetic acid (EDTA)/trypsin (Lonza, MD, USA) and 2',7'-dichlorodihydrofluorescein diacetate (H2DCFDA) tagged on a 5 μM fluorescent tube (Sigma-Aldrich) in order to identify intracellular ROS and/or 4-amino-5-methylamino-2′,7′-difluorofluorescein (DAF-FM; Sigma-Aldrich) for NO production in a 5% CO2 atmosphere for 45 min at 37°C. ROS and NO were quantified using flow cytometry (FACS Canto II) at a wavelength of 480 nm. Untreated cells were used as negative controls, while cells treated with 0.0001% H2O2 and 1 μM phorbol myristate acetate were used as ROS production (positive) controls. LPS (10 ng/mL) and phytohemagglutinin (PHA-M) (10 μL/mL) (Invitrogen) were used as positive controls for NO production.

The test system is the same in series [4]. The series can be described thus: NO production in L. (V.) panamensis-infected hMDMs (DAF-FM flow cytometry). Type of series: cell-based, human. On the procedure: as §3
For series [5] the test system is unchanged. The series can be described thus: Transmission electron microscopy of L. (V.) panamensis-infected hMDMs. On Cell membrane (ultrastructural modification grade): key: -: no alteration/absence; +: low alteration/low presence; ++: alteration/moderate presence; +++: serious disturbance/abundant presence. On LB (lipid bodies, grade): key: -: no alteration/absence; +: low alteration/low presence; ++: alteration/moderate presence; +++: serious disturbance/abundant presence. On Mitochondria (ultrastructural modification grade): key: -: no alteration/absence; +: low alteration/low presence; ++: alteration/moderate presence; +++: serious disturbance/abundant presence. On Nucleus (ultrastructural modification grade): key: -: no alteration/absence; +: low alteration/low presence; ++: alteration/moderate presence; +++: serious disturbance/abundant presence. In kind it is cell-based, human. Conditions: compound at EC50, 72 h, TEM. An excerpt:
(§4) This procedure involved including fresh resin and 100–200-nm-wide ultrafine cuts observed by TEM (100X–10.000X) (HITACHI-HU-12; Hitachi, Tokyo, Japan).

The subject of series [6] is L. (V.) panamensis intracellular amastigotes. The series can be described thus: Transmission electron microscopy of L. (V.) panamensis intracellular amastigotes in hMDMs. Type of series: cell-based, Leishmania (Viannia) panamensis. Also noted: Nucleus (ultrastructural alteration grade) / Vacuoles (ultrastructural alteration grade): key: -: no alteration/absence; +: low alteration/low presence; ++: alteration/moderate presence; +++: serious disturbance/abundant presence. Conditions: compound at EC50, 72 h, TEM.
Excerpt: as §4

The nature of series [7]: Cytotoxicity in hMDMs (resazurin, 72 h). The following applies: human. On the procedure:
We isolated hMDMs from buffy coats donated by the Institute of Local Science (Biotechnology and Health Innovation, Bogotá, Colombia) and spun them in Lymphoprep density gradient medium (Stem-Cell, Vancouver, Canada).
Next, we added 100 μL of this culture to each quinoline alkaloid–like compound at a concentration of 200, 20, 2, 0.2, and 0.02 μg/mL. […] Cells treated with amphotericin B (Sigma-Aldrich) were used as cell apoptosis (positive) controls. Results were expressed as the medial cytotoxic concentration (CC50) using Prism GraphPad software for nonlinear regression analysis (https://www.graphpad.com/scientific-software/prism/).
as §1, §2

Series [8] has as its system L. (V.) panamensis intracellular amastigotes. The series can be described thus: Antileishmanial activity in L. (V.) panamensis intracellular amastigotes in hMDMs. Conditions: 72 h, ± SD. Type of series: cell-based, Leishmania (Viannia) panamensis.
The mark [9] stands for this setting: amastigotes in hMDMs, 72 h, ± SD.

Values after ≈ are worked out from the molar mass of the structure shown. Values joined by “and” are separate entries in the source; they are usually repeats but may differ in a detail not shown here. Equal values may be shown once.

The source of these data is article PMC7769561, “Antileishmanial activity of synthetic analogs of the naturally occurring quinolone alkaloid N-methyl-8-methoxyflindersin” (PLoS ONE, 2020).

Turning to `COc1ccc2c3c(c(=O)n(C)c2c1)C=CC(C)(C)O3` [Compound 1, N-methyl-8-methoxyflindersin], in [1], the “EC50 Intracellular promastigotes” value was found to be 9.9 ± 3 µg/mL (≈ 36.5 µM) and the EC50 was 36.5 µM. Also, the “SI (selectivity index = CC50/EC50)” value in series [2] was determined as 5.87. Also, in series [2] (setting [9]), the EC50 is 29.2 µM and the “EC50 Intracellular amastigotes” value worked out at 7.4 ± 1.95 µg/mL (≈ 27.3 µM). For the same compound, the Antileishmanial activity class result in series [2] (intracellular amastigotes, class by EC50) was “high (high if EC50 < 25 μg/mL)”. Besides, the “Percentage of apoptotic cells (annexin V+ 7AAD–, Q3)” value in the series with hMDMs (L. (V.) panamensis-infected hMDMs) was determined as 41.3%. The “Percentage of apoptotic cells (annexin V+ 7AAD–, Q3)” value with hMDMs (noninfected (basal) hMDMs) is 20.2%. In addition, in series [3], the “ROS generation compared to infected control cells” value was “no significant variations”. Besides, in [4] (compound at EC50, 24, 48 and 72 h), the “NO production compared to untreated infected hMDMs” value was “increase in NO production”. In addition, the NO production entry in series [4] (compound at EC50, 72 h posttreatment) is “increase in NO production”. In series [5], the “Cell membrane (ultrastructural modification grade)” value is “-”; the “LB (lipid bodies, grade)” value is “-”; the “Mitochondria (ultrastructural modification grade)” value is “+”; the “Nucleus (ultrastructural modification grade)” value is “-”. Further, in [5], the “PV (description)” value is “Individuals, attached to the parasite”; the “PV (parasitophorous vacuoles, grade)” value is reported as “+”; the “Parasites (grade)” value was “+”; the “Vacuoles (description)” value is recorded as “Double membrane (autophagic-digestives)”. For the same compound, the “Vacuoles (ultrastructural modification grade)” value in [5] is recorded as “++”. In addition, in series [6], the “Cell membrane (description)” value was “Integrity damage in membrane”; the “Cell membrane (ultrastructural alteration grade)” value was “+++”; the “Flagellum (flagellar/axonema pocket) (grade)” value is listed as “-”; the “LB (lipid bodies, grade)” value was “-”. In addition, in series [6], the “Mitochondria/Kinetoplasts (ultrastructural alteration grade)” value is on record as “-”, the “Nucleus (description)” value is listed as “Nuclear membrane damage”, the “Nucleus (ultrastructural alteration grade)” value is recorded as “+++” and the “PV (description)” value is recorded as “Individuals attached to the parasite”. For the same compound, in series [6], the “PV (parasitophorous vacuoles, grade)” value is listed as “+”; the “Vacuoles (description)” value was “Electrodense acidocalcisome type”; the “Vacuoles (ultrastructural alteration grade)” value is on record as “++”.

For the compound `Cc1cc(=O)[nH]c2ccccc12` [Compound 4, 4-methyl-2-(1H)-quinolinone], the CC50 at 72 h in series [7] is 95.2 µg/mL and 391 µM. In addition, the EC50 was 62.3 µg/mL and 256 µM in series [1]; 57.1 µg/mL and 256 µM in [8]. Further, in series [2], the “SI (selectivity index = CC50/EC50)” value was 1.66.

Regarding `C[C@@H]1[C@H](O)[C@@H](C)/C=C/C=C/C=C/C=C/C=C/C=C/C=C/[C@H](O[C@@H]2O[C@H](C)[C@@H](O)[C@H](N)[C@@H]2O)C[C@@H]2O[C@](O)(C[C@@H](O)C[C@@H](O)[C@H](O)CC[C@@H](O)C[C@@H](O)CC(=O)O[C@H]1C)C[C@H](O)[C@H]2C(=O)O` [AMB, amphotericin B, reference compound], the CC50 at 72 h in series [7] is 4.5 µg/mL and 4.9 µM. Moreover, the concentration for a half-maximal effect (EC50) was 0.3 µg/mL and 300 nM in series [1]; 0.4 µg/mL and 400 nM in series [8]. The “SI (selectivity index = CC50/EC50)” value in series [2] came to 11.25.
